From patent publication US9809623B2, “α4β7 peptide monomer and dimer antagonists” (Protagonist Therapeutics, Inc., priority 2014, dated 2017)
Read-outs that look alike come from different tables or passages of the source. Numbered stars: 1 amine (or outer) side, 2 acyl side, 3 side chain; on linkers, the order of the positions; unused ones are H or OH. Bridge positions count the residues as written; N and C are the ends. Square brackets hold non-standard residues; d marks the D form. Peptide text beside a SMILES is read from it. I, II: the chains in the order shown. ξ: configuration not given here. Phe(4-COOH) = N[C@@H](Cc1ccc(C(=O)O)cc1)C(=O)O; Phe(4-tBu) = CC(C)(C)c1ccc(C[C@H](N)C(=O)O)cc1; 1Nal = N[C@@H](Cc1cccc2ccccc12)C(=O)O; Diglycolyl = O=C(COCC(=O)[*:2])[*:1]; NMeR = CN[C@@H](CCCNC(=N)N)C(=O)O; β3hE = N[C@@H](CCC(=O)O)CC(=O)O; Thr(3ξ) = CC(O)[C@H](N)C(=O)O; NMeK = CN[C@@H](CCCCN)C(=O)O; Pen = CC(C)(S)[C@H](N)C(=O)O

Legend:
α4β7 [1] = target: T1, α4β7 (Mus musculus, UniProt P26011+Q00651); experiment: α4β7 Cell Adhesion Assay (Mouse), TK1 cells; type: cell-based
T1 construct: host or cells: TK1 mouse T cells
T1 sequence (Q00651 34-1039 limits assumed): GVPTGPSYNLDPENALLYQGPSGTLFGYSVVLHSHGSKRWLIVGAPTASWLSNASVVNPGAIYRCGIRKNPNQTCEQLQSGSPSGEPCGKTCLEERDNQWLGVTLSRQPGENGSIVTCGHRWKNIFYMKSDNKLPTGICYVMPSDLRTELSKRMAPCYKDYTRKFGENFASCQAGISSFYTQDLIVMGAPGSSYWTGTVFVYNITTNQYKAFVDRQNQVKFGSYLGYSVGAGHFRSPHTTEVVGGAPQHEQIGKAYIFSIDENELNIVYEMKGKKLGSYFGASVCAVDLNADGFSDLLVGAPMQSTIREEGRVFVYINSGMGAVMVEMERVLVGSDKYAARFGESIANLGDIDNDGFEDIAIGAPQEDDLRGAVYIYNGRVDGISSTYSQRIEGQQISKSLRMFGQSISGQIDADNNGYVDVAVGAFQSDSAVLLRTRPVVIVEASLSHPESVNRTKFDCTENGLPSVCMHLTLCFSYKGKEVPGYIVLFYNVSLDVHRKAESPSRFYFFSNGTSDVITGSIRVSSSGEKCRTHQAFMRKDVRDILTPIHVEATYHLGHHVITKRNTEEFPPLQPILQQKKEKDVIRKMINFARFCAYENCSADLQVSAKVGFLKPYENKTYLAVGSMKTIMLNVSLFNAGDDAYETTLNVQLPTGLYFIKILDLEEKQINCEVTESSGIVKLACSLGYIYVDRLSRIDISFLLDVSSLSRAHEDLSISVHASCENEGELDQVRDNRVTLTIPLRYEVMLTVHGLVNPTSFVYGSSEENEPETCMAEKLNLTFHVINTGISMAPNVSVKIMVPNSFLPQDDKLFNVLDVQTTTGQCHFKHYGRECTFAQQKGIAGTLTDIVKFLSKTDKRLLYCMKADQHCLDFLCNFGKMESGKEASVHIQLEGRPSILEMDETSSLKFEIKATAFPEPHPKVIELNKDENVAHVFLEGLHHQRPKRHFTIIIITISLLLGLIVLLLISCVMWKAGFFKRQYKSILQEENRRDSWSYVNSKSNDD
T1 sequence (P26011 20-806): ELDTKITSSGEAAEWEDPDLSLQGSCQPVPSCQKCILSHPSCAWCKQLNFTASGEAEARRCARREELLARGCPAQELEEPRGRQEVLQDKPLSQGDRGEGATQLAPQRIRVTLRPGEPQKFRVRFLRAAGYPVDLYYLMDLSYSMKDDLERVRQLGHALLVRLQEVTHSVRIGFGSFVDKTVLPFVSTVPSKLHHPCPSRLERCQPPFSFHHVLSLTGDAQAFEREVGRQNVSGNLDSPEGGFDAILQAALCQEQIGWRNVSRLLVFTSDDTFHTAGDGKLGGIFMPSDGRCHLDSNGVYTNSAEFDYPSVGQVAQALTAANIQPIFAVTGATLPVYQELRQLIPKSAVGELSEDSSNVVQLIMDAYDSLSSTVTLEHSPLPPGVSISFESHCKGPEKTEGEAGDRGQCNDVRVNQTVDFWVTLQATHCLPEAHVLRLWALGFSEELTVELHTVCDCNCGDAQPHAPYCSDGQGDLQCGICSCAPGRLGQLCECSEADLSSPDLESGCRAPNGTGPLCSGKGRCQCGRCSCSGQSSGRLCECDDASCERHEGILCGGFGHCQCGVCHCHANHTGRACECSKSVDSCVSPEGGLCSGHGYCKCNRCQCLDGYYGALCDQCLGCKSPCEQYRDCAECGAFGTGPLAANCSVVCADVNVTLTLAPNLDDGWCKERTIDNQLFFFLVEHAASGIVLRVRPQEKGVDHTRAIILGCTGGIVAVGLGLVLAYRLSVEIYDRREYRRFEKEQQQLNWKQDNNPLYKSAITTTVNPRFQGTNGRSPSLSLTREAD
Description: TK1 cells (ATCC # ATCC-CRL-2396) were cultured in RPMI 1640 with 2 mM L-glutamine adjusted to contain 1.5 g/L sodium bicarbonate, 4.5 g/L glucose, 10 mM HEPES, and 1.0 mM sodium pyruvate (ATCC#30-2001) and supplemented with 0.1 mM non-essential amino acids, (ATCC #30-2116) 0.05 mM 2-mercaptoethanol (Invitrogen #21985) and 10% serum (Fetal Bovine Serum, Invitrogen #16140-071), and Penicillin-Streptomycin (Invitrogen #15140-122) at 100 units of penicillin and 100 μg of streptomycin per ml. The cells were washed two times in DMEM medium (ATCC #30-2002) supplemented with 0.1% BSA, 10 mM HEPES pH 7 and 1 mM MnCl2. The cells were re-suspended in supplemented DMEM medium at a density of 4×10^6 cells/ml.
A Nunc MaxiSorp plate was coated with Recombinant human MAdCAM-1 Fc Chimera (R&D #6065-MC) at 200 ng per well in 100 μl per well in 1×PBS and incubated at 4° C. overnight. The solution was then removed by shaking, blocked with 250 ul per well PBS containing 1% BSA, and incubated at 37° C. for 1 hr. The solution was removed by shaking. DATK 32 (anti-mouse α4β7) and peptides were diluted by serial dilution in a final volume of 50 ul per well (2× concentration). To each well, 50 ul of cells (200,000 cells) are added and the plate is incubated at 37° C., 5% CO2 for 30-45 min to allow cell adhesion. The plate was manually washed three times with supplemented DMEM, 100 ul per wash. After the final wash, 100 ul/well of supplemented DMEM and […] of MTT reagent (ATTC cat#30-1010K) was added to each well. Wells were incubated at 37° C. with 5% CO2 for 2-3 hrs until purple precipitate was visible. 100 μl of Detergent Reagent (ATTC cat#30-1010K) was added to each well. The plate was then wrapped with Para film to prevent evaporation, and left overnight at room temperature in the dark. The plate was shaken for 5 min and the absorbance at 570 nm was measured. To calculate the dose response, the absorbance value of control wells not containing cells was subtracted from each test well.

α4β7 [2] = target: α4β7 (Homo sapiens, UniProt P13612+P26010); experiment: PBMC Memory T Cell Adhesion Assay, adhesion to MAdCAM-1; type: cell-based
Chain of α4β7 (Homo sapiens, UniProt P13612+P26010) (P13612 34-1032): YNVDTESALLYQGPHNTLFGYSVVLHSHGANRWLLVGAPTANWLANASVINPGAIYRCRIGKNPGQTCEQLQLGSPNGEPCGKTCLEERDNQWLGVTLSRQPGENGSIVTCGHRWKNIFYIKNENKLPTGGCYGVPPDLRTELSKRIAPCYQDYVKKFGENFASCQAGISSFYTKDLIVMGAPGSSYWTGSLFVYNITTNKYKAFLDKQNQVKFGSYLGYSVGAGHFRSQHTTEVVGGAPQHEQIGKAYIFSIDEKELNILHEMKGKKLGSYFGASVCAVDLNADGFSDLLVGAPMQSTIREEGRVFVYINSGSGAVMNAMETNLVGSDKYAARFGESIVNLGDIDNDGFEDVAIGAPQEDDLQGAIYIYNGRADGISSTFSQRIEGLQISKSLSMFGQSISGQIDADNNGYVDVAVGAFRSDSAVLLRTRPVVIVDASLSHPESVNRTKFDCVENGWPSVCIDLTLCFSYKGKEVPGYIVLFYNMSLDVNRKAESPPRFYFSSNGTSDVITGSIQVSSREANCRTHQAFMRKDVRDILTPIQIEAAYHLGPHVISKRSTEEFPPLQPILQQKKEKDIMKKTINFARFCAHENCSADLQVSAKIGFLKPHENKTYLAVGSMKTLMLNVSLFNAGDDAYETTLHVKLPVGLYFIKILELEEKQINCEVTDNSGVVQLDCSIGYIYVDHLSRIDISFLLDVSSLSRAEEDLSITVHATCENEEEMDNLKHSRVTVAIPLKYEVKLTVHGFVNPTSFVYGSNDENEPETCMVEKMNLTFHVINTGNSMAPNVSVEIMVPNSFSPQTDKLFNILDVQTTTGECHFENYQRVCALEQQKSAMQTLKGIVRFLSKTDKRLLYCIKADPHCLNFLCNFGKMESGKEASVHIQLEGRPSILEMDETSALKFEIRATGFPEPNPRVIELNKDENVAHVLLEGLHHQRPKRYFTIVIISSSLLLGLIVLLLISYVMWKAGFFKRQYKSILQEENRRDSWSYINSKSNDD
Chain of α4β7 (Homo sapiens, UniProt P13612+P26010) (P26010 20-798): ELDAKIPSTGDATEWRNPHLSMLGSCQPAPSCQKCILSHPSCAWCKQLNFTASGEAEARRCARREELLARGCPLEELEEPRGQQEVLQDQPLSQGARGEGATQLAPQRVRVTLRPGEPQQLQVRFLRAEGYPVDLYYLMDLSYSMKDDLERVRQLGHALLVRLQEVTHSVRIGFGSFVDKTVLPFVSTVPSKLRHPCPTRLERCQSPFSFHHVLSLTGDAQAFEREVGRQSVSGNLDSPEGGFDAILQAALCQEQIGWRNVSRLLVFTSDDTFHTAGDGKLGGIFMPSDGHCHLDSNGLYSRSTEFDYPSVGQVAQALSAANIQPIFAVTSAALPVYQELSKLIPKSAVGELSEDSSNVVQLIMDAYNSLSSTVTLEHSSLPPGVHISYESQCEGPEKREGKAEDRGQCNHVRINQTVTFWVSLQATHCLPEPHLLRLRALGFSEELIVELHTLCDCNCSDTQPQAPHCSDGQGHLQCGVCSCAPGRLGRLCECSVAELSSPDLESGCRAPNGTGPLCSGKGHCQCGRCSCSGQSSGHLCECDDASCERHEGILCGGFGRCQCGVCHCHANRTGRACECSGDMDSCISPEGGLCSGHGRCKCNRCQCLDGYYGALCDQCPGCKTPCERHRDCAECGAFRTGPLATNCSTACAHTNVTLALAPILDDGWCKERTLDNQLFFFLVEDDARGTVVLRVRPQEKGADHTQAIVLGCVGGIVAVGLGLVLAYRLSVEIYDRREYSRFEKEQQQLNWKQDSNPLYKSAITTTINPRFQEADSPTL
How it was run: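 Fresh human CD4+/CD45RO+ memory T cells in binding medium with 1 mM MnCl2 were preincubated with compound for 1.5 h at 37° C. on plates coated with Fc-captured MAdCAM-1 (400 ng/well). Adherent cells were read by fluorescence (Ex 485/Em 530). IC50 came from four-parameter nonlinear regression of RFU versus log concentration.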

[3] = Table 3-B, Potency (α4β7), range classes, read-out: α4β7 cell(MU) IC50
[4] = Table 3-B, range classes, read-out: PBMC IC50

Row | Structure (SMILES) | IC50 (α4β7 [1]; mouse T cell TK1, read-out: IC50 for blocking adhesion of TK1 cell line to MAdCAM-1) [nM] | IC50 (α4β7 [2]; average, cells isolated from 4 different human PBMC donors, read-out: IC50 (nM), memory T cells, Integrin α4β7, Ligand MAdCAM-1) [nM] | IC50 (α4β7 [2]; read-out: IC50 for α4β7 T cells) [nM] | IC50 (α4β7 [1]; [3]) [nM] | IC50 (α4β7 [2]; [4]) [nM]
1 | CC(=O)N[C@@H]1C(=O)N(C)[C@@H](CCCNC(=N)N)C(=O)N[C@@H](CO)C(=O)N[C@@H](CC(=O)O)C(=O)N[C@@H](C(C)O)C(=O)N[C@@H](CC(C)C)C(=O)N[C@H](C(=O)N[C@@H](Cc2ccc(C(C)(C)C)cc2)C(=O)N[C@@H](CCC(=O)O)CC(=O)N[C@H](CCCCNC(=O)COCC(=O)NCCCC[C@@H](NC(=O)C[C@H](CCC(=O)O)NC(=O)[C@H](Cc2ccc(C(C)(C)C)cc2)NC(=O)[C@H]2NC(=O)[C@H](CC(C)C)NC(=O)[C@H](C(C)O)NC(=O)[C@H](CC(=O)O)NC(=O)[C@H](CO)NC(=O)[C@H](CCCNC(=N)N)N(C)C(=O)[C@@H](NC(C)=O)C(C)(C)SSC2(C)C)C(N)=O)C(N)=O)C(C)(C)SSC1(C)C (stereo partly drawn) [Peptide X, [Ac-Pen-(N-Me-Arg)-Ser-Asp-Thr-Leu-Pen-(Phe(4-tBu))-(β-homoGlu)-(D-Lys)]2-DIG] (I: Ac-[Pen][NMeR]SD[Thr(3ξ)]L[Pen][Phe(4-tBu)][β3hE][dK]-NH2 / II: Ac-[Pen][NMeR]SD[Thr(3ξ)]L[Pen][Phe(4-tBu)][β3hE][dK]-NH2; disulfide I:1-I:7, II:1-II:7; linker I:10-II:10 via Diglycolyl) | 0.5 | 1.3 | 1 | – | –
2 | CC(=O)N[C@@H]1C(=O)N(C)[C@@H](CCCNC(=N)N)C(=O)N[C@@H](CO)C(=O)N[C@@H](CC(=O)O)C(=O)N[C@@H]([C@@H](C)O)C(=O)N[C@@H](CC(C)C)C(=O)N[C@H](C(=O)N[C@@H](Cc2c[nH]c3ccccc23)C(=O)N[C@H](CCC(=O)O)C(=O)N[C@H](CCCCNC(=O)COCC(=O)NCCCC[C@@H](NC(=O)[C@@H](CCC(=O)O)NC(=O)[C@H](Cc2c[nH]c3ccccc23)NC(=O)[C@H]2NC(=O)[C@H](CC(C)C)NC(=O)[C@H]([C@@H](C)O)NC(=O)[C@H](CC(=O)O)NC(=O)[C@H](CO)NC(=O)[C@H](CCCNC(=N)N)N(C)C(=O)[C@@H](NC(C)=O)C(C)(C)SSC2(C)C)C(N)=O)C(N)=O)C(C)(C)SSC1(C)C [compound 68] (I: Ac-[Pen][NMeR]SDTL[Pen]W[dE][dK]-NH2 / II: Ac-[Pen][NMeR]SDTL[Pen]W[dE][dK]-NH2; disulfide I:1-I:7, II:1-II:7; linker I:10-II:10 via Diglycolyl) | – | – | – | < 10 | 100 to 500
3 | CC(=O)N[C@@H]1C(=O)N(C)[C@@H](CCCNC(=N)N)C(=O)N[C@@H](CO)C(=O)N[C@@H](CC(=O)O)C(=O)N[C@@H]([C@@H](C)O)C(=O)N[C@@H](CC(C)C)C(=O)N[C@H](C(=O)N[C@@H](Cc2ccc(C(=O)O)cc2)C(=O)N[C@@H](CCC(=O)O)CC(=O)N[C@H](CCCCNC(=O)COCC(=O)NCCCC[C@@H](NC(=O)C[C@H](CCC(=O)O)NC(=O)[C@H](Cc2ccc(C(=O)O)cc2)NC(=O)[C@H]2NC(=O)[C@H](CC(C)C)NC(=O)[C@H]([C@@H](C)O)NC(=O)[C@H](CC(=O)O)NC(=O)[C@H](CO)NC(=O)[C@H](CCCNC(=N)N)N(C)C(=O)[C@@H](NC(C)=O)C(C)(C)SSC2(C)C)C(N)=O)C(N)=O)C(C)(C)SSC1(C)C [compound 130] (I: Ac-[Pen][NMeR]SDTL[Pen][Phe(4-COOH)][β3hE][dK]-NH2 / II: Ac-[Pen][NMeR]SDTL[Pen][Phe(4-COOH)][β3hE][dK]-NH2; disulfide I:1-I:7, II:1-II:7; linker I:10-II:10 via Diglycolyl) | – | – | – | – | < 10
4 | CC(=O)N[C@@H]1C(=O)N(C)[C@@H](CCCNC(=N)N)C(=O)N[C@@H](CO)C(=O)N[C@@H](CC(=O)O)C(=O)N[C@@H]([C@@H](C)O)C(=O)N[C@@H](CC(C)C)C(=O)N[C@H](C(=O)N[C@@H](Cc2ccc(C(C)(C)C)cc2)C(=O)N[C@@H](CCC(=O)O)CC(=O)N[C@H](CCCCNC(=O)COCC(=O)NCCCC[C@@H](NC(=O)C[C@H](CCC(=O)O)NC(=O)[C@H](Cc2ccc(C(C)(C)C)cc2)NC(=O)[C@H]2NC(=O)[C@H](CC(C)C)NC(=O)[C@H]([C@@H](C)O)NC(=O)[C@H](CC(=O)O)NC(=O)[C@H](CO)NC(=O)[C@H](CCCNC(=N)N)N(C)C(=O)[C@@H](NC(C)=O)C(C)(C)SSC2(C)C)C(N)=O)C(N)=O)C(C)(C)SSC1(C)C [compound 132] (I: Ac-[Pen][NMeR]SDTL[Pen][Phe(4-tBu)][β3hE][dK]-NH2 / II: Ac-[Pen][NMeR]SDTL[Pen][Phe(4-tBu)][β3hE][dK]-NH2; disulfide I:1-I:7, II:1-II:7; linker I:10-II:10 via Diglycolyl) | – | – | – | < 10 | < 10
5 | CC(=O)N[C@@H]1C(=O)N(C)[C@@H](CCCNC(=N)N)C(=O)N[C@@H](CO)C(=O)N[C@@H](CC(=O)O)C(=O)N[C@@H]([C@@H](C)O)C(=O)N[C@@H](CC(C)C)C(=O)N[C@H](C(=O)N[C@@H](Cc2cccc3ccccc23)C(=O)N[C@@H](CCC(=O)O)CC(=O)N(C)[C@@H](CCCCNC(=O)COCC(=O)NCCCC[C@@H](C(N)=O)N(C)C(=O)C[C@H](CCC(=O)O)NC(=O)[C@H](Cc2cccc3ccccc23)NC(=O)[C@H]2NC(=O)[C@H](CC(C)C)NC(=O)[C@H]([C@@H](C)O)NC(=O)[C@H](CC(=O)O)NC(=O)[C@H](CO)NC(=O)[C@H](CCCNC(=N)N)N(C)C(=O)[C@@H](NC(C)=O)C(C)(C)SSC2(C)C)C(N)=O)C(C)(C)SSC1(C)C [compound 142] (I: Ac-[Pen][NMeR]SDTL[Pen][1Nal][β3hE][NMeK]-NH2 / II: Ac-[Pen][NMeR]SDTL[Pen][1Nal][β3hE][NMeK]-NH2; disulfide I:1-I:7, II:1-II:7; linker I:10-II:10 via Diglycolyl) | – | – | – | – | 50 to 100
6 | CC(=O)N[C@@H]1C(=O)N(C)[C@@H](CCCNC(=N)N)C(=O)N[C@@H](CO)C(=O)N[C@@H](CC(=O)O)C(=O)N[C@@H]([C@@H](C)O)C(=O)N[C@@H](CC(C)C)C(=O)N[C@H](C(=O)N[C@@H](Cc2ccc(C(=O)O)cc2)C(=O)N[C@@H](CCC(=O)O)C(=O)N(C)[C@@H](CCCCNC(=O)COCC(=O)NCCCC[C@@H](C(N)=O)N(C)C(=O)[C@H](CCC(=O)O)NC(=O)[C@H](Cc2ccc(C(=O)O)cc2)NC(=O)[C@H]2NC(=O)[C@H](CC(C)C)NC(=O)[C@H]([C@@H](C)O)NC(=O)[C@H](CC(=O)O)NC(=O)[C@H](CO)NC(=O)[C@H](CCCNC(=N)N)N(C)C(=O)[C@@H](NC(C)=O)C(C)(C)SSC2(C)C)C(N)=O)C(C)(C)SSC1(C)C [compound 147] (I: Ac-[Pen][NMeR]SDTL[Pen][Phe(4-COOH)]E[NMeK]-NH2 / II: Ac-[Pen][NMeR]SDTL[Pen][Phe(4-COOH)]E[NMeK]-NH2; disulfide I:1-I:7, II:1-II:7; linker I:10-II:10 via Diglycolyl) | – | – | – | < 10 | < 10
7 | CC(=O)N[C@@H]1C(=O)N(C)[C@@H](CCCNC(=N)N)C(=O)N[C@@H](CO)C(=O)N[C@@H](CC(=O)O)C(=O)N[C@@H]([C@@H](C)O)C(=O)N[C@@H](CC(C)C)C(=O)N[C@H](C(=O)N[C@@H](Cc2ccc(C(C)(C)C)cc2)C(=O)N[C@@H](CCC(=O)O)CC(=O)N(C)[C@@H](CCCCNC(=O)COCC(=O)NCCCC[C@@H](C(N)=O)N(C)C(=O)C[C@H](CCC(=O)O)NC(=O)[C@H](Cc2ccc(C(C)(C)C)cc2)NC(=O)[C@H]2NC(=O)[C@H](CC(C)C)NC(=O)[C@H]([C@@H](C)O)NC(=O)[C@H](CC(=O)O)NC(=O)[C@H](CO)NC(=O)[C@H](CCCNC(=N)N)N(C)C(=O)[C@@H](NC(C)=O)C(C)(C)SSC2(C)C)C(N)=O)C(C)(C)SSC1(C)C [compound 149] (I: Ac-[Pen][NMeR]SDTL[Pen][Phe(4-tBu)][β3hE][NMeK]-NH2 / II: Ac-[Pen][NMeR]SDTL[Pen][Phe(4-tBu)][β3hE][NMeK]-NH2; disulfide I:1-I:7, II:1-II:7; linker I:10-II:10 via Diglycolyl) | – | – | – | < 10 | < 10
8 | CC(=O)N[C@@H]1C(=O)N(C)[C@@H](CCCNC(=N)N)C(=O)N[C@@H](CO)C(=O)N[C@@H](CC(=O)O)C(=O)N[C@@H]([C@@H](C)O)C(=O)N[C@@H](CC(C)C)C(=O)N[C@H](C(=O)N[C@@H](Cc2ccc(C(C)(C)C)cc2)C(=O)N[C@@H](CCC(=O)O)CC(=O)O)C(C)(C)SSC1(C)C [compound 152] (Ac-[Pen][NMeR]SDTL[Pen][Phe(4-tBu)][β3hE]-OH; disulfide 1-7) | – | – | – | < 10 | 25 to 50
